Measurements reported in US5110933A, “Salts of 3-azabicyclo[3.3.1]nonanes as antiarrhythmic agents, and precursors thereof” (Board of Regents of Oklahoma State University, priority 1990, dated 1992).

Key:
[1] = system: Sustained ventricular tachycardia induced by electrical pacing of infarcted dog heart; test: Antiarrhythmic activity on sustained ventricular tachycardia induced by electrical pacing of infarcted dog heart; assay type: in vivo; settings: for ability to reduce the rate of the induced VT or to eliminate the same: 3 mg/kg as well as 6 mg/kg
From the text: To illustrate the useful biological properties of the compounds described in this invention, selected derivatives were screened for antiarrhythmic activity using dog models. The clinically used agent lidocaine and 7-benzyl-3-thia-7-azabicyclo[3.3.1]nonane hydroperchlorate (48) [U.S. Pat. No. 4,581,361] were employed as standards as basis for comparison. A small infarction was created in an area of the dog heart and thereafter electrical pacing was initiated to generate a sustained ventricular tachycardia (VT). This irregular beating pattern of the heart results in a reduction of the pumping capability of the heart in a manner now accepted as resembling symptoms observed in humans during a heart attack (see: Scherlag, B. J. et. al., Am. J. Cardiol. 1983, 51, 207; Bailey, B. R. et. al., J. Med. Chem. 1984, 27, 759; Thompson, M. D. et. al., J. Med. Chem. 1987, 30, 780; U.S. Pat. No. 4,581,361; and U.S. Pat. No. 4,778,892 for further details, said references incorporated herein for such purposes). The effects of the selected compounds in terms of ability to reduce the rate of the induced VT or to eliminate the same (abolish the VT completely or at least not allow it to be sustained) is then evaluated and compared to lidocaine or to 7-benzyl-3-thia-7-azabicyclo[3.3.1]nonane hydroperchlorate (48).

[2] = design: species or system rats; settings: rat, in vivo, po
[3] = Tissue distribution of radioactivity after oral administration of (48)*; design: species or system rats; settings: rat, in vivo
From the text: In order to determine the potential viability of members of the above family to act as useful antiarrhythmic agents in vivo, a pharmacokinetic and metabolism study was undertaken using a representative example from the above compounds. The techniques employed in these preliminary studies are well documented, but a summary of pharmacokinetic procedures can be found in: J. D. Baggot, "Principals of Drug Disposition in Domestic Animals: The Basis of Veterinary Clinical Pharmacology", W. B. Saunders Company, Philadelphia, 1977. These studies were conducted using ^14 C-labelled (48)* [Prepared by the method of Zisman, Berlin, et al. J. Labelled Compounds and Radiopharmaceuticals, In Press (1989)] in Sprague-Dawley rats.
Tissue distribution of (48)* was studied by measuring the radioactivity in selected organs collected from rats sacrificed at several time intervals after oral administration. […] These observations correlate well with the high volume of distribution calculated from pharmacokinetic data.

Molecule | ability to reduce the rate of the induced VT or to eliminate the same [1] | Effect on SVT ([1]; 3mg/kg) | Effect on SVT ([1]; 6mg/kg) | further results
CC(C)N1CC2CC(CN(C(=O)c3ccccc3)C2)C1 [(1), 3-Benzoyl-7-isopropyl-3,7-diazabicyclo[3.3.1]nonane Hydroperchlorate] | extremely effective in eliminating the induced VT |  |  | 
COc1ccc(C(=O)N2CC3CC(C2)CN(C(C)C)C3)cc1OC.[O-][Cl+3]([O-])([O-])O [(3), 3-(3',4'-Dimethoxybenzoyl)-7-isopropyl-3,7-diazabicyclo[3.3.1]nonane Hydroperchlorate] | extremely effective in eliminating the induced VT |  |  | 
CC(C)N1CC2CC(CN(Cc3ccccc3)C2)C1 [(5), 7-Benzyl-3-isopropyl-3,7-diazabicyclo[3.3.1]nonane Hydroperchlorate] | extremely effective in eliminating the induced VT |  |  | 
CC(C)N1CC2CSCC(C2)C1 [(8), 7-Isopropyl-3-thia-7-azabicyclo[3.3.1]nonane Hydroperchlorate] | exhibited little effect on the dog model | No action | No action | 
[O-][S+]1CC2CC(CN(Cc3ccccc3)C2)C1 (stereo not drawn) [(10), 7-Benzyl-3-thia-7-azabicyclo[3.3.1]nonane 3-Oxide Hydroperchlorate] | reduced the rates of the induced VT but did not abolish them | Reduced rate of VT | Reduced rate of VT | 
COC1(OC)C2CSCC1CN(Cc1ccccc1)C2 [(11), 7-Benzyl-9,9-dimethoxy-3-thia-7-azabicyclo[3.3.1]-nonane Hydroperchlorate] | extremely effective in eliminating the induced VT |  |  | 
COC1(OC)C2CN(Cc3ccccc3)CC1CN(Cc1ccccc1)C2 [(12), 3,7-Dibenzyl-9,9-dimethoxy-3,7-diazabicyclo[3.3.1]nonane Hydroperchlorate] | reduced the rates of the induced VT but did not abolish them | Reduced | Reduced | 
O=C(c1ccccc1)N1CC2CSCC(C2)C1 [(15)] | reduced the rates of the induced VT but did not abolish them | Reduced | Reduced | 
O=C1C2CC(CN(Cc3ccccc3)C2)CN1Cc1ccccc1 (stereo not drawn) [(17), 3,7-Dibenzyl-3,7-diazabicyclo[3.3.1]nonan-2-one] | reduced the rates of the induced VT but did not abolish them | Reduced | Reduced | 
c1ccc(CN2CC3CSCC(C3)C2)cc1 [(48)] |  |  |  | excretion in urine [2]: most of the dose was excreted in the form of metabolites; radioactivity in liver and kidney [3]: High levels of radioactivity; radioactivity in the heart [3]: Reasonably high concentrations of radioactivity
Ethyl 3-Benzyl-3-azabicyclo[3.3.1]nonane-7-(endo)-carboxylate Hydroperchlorate [(13)] | extremely effective in eliminating the induced VT |  |  | 
Ethyl 3-Benzyl-9,9-(1,3-dithiolan-2-yl)-3-azabicyclo[3.3.1]nonane-7-(endo)-carboxylate Hydroperchlorate [(14)] | extremely effective in eliminating the induced VT |  |  | 
